Where a name gives a salt, the structure may show the parent alone. Marks after values point to notes of the source that are not given here.

The test system of experiment [1] is cough induced by ammonia water in mice. Nature of the experiment: Antitussive test, cough induced by ammonia water in mice. The class given is in vivo, ICR mice. Here is the method: • Animals: male ICR mice; • Drugs and reagents: dextromethorphan hydrobromide, ammonia water, 0.2% CMC-Na, protein BD-3; • Apparatus: Compressed nebulizer (403T type), balance (XS105DU type). • Experiment grouping: • Solvent control group; • Dextromethorphan 15 mg/kg group; • Protein BD-3, 20 mg/kg group, 50 mg/kg group.
Dextromethorphan and different doses of protein BD-3 (administration volume 10 ml/kg) were given orally in groups, and the solvent control group was given the same volume of distilled water. One hour later, mice were put into a sealed box and atomized 10% ammonia water for 10 seconds, and then observed and recorded the incubation period of cough in mice and the number of coughs in 2 minutes.
Record the time point of oral administration, the time point of atomization experiment, the incubation period of mice cough and the number of coughs within 2 minutes, respectively. The incubation period of cough refers to the number of seconds from the start of the atomization of ammonia to the occurrence of cough. The performance of coughing in mice is based on contraction of their abdominal muscles (breast contraction) and opening their mouths at the same time. Calculate the mean and standard error of each group of data, and use TTEST to compare the model group with other groups, and P<0.05 is considered as a significant difference.

Experiment [2] concerns PLO-induced epilepsy in mice. Kind of experiment: Pilocarpine (PLO) induced convulsive epilepsy in mice. Type of experiment: in vivo, ICR mice. The conditions noted are these: Diazepam 2 mg/kg. The procedure: • Animals: male ICR mice; • Drugs: Pilocarpine HCl (PLO, pilocarpine, pilocarpine hydrochloride), Diazepam (diazepam tablets), protein BD-3. • Experiment grouping: • Model group: • Diazepam 2 mg/kg group; • Protein BD-3, 50 mg/kg group, 200 mg/kg group.
The drug was administered once in the afternoon the day before modeling, PLO-225 mg/kg (modeling agent) was injected intraperitoneally 1 hour after the test drug was administered intragastrically on the day of modeling. And positive drug can be administered once 20 minutes before modeling. Observe for 30 minutes after PLO injection.
Observation indicators: (1)Seizure situation: the time of seizures from Grade II to Grade IV; (2)the time to death.
(§1) Seizure grade: Refer to Racine grading standard: Grade 0: No response; Grade I: manifested as twitching of facial muscles or the corners of the mouth; Grade II: can nod; Grade III: twitching of one limb; Grade IV: rigidity or body twitching; Grade V: generalized epilepsy (generalized tonic seizures).
Count the number of Grade IV seizures and deaths in each group of mice in the experiment; Grade II, III and IV incubation period. […] Chi-square test was used for statistics of the number of cases. The mean value and standard error of the incubation period were calculated, and TTEST was used to compare the model group with other groups. P<0.05 was considered as a significant difference.

Experiment [3] deals with PTZ-induced epilepsy in mice. Kind of experiment: Pentylenetetrazole (PTZ)-induced epilepsy in mice. The class given is in vivo, ICR mice. The conditions noted are these: Retigabine 60 mg/kg. Here is the method:
• Animals: male ICR mice; • Medicines: Pentylenetetrazol (PTZ), Retigabine, Protein BD-3. • Experiment grouping: • Model group; • Retigabine 60 mg/kg group; • Protein BD-3, 50 mg/kg group, 200 mg/kg group;
The drug was administered once in the afternoon the day before modeling, On the day of modeling, PTZ-65 mg/kg (modeling agent) was injected intraperitoneal 1 hour after the test drug was administered intragastrically, and the positive drug can be administered once half an hour before modeling. Continue to observe for 15 minutes after injection of PTZ.
Observation index: (1)Seizure situation: the time of seizures from Grade III to Grade VI; (2)Death situation
as §1
Count the cases of seizures and deaths in each group of mice in the experiment; Grade III and IV incubation period. The incubation period of mice that have not attacked to Grade IV is recorded as the maximum of 900 seconds. Chi-square test was used for statistics of the number of cases. Calculate the mean and standard error of the incubation period. Use TTEST to compare the model group with other groups, and P<0.05 is considered as a significant difference.

Experiment [4] has as its system lipopolysaccharide (LPS) induced fever model in SD rats. Kind of experiment: Lipopolysaccharide (LPS) induced fever in SD rats. Type of experiment: in vivo. Here is the method: • Animals: 230-260 grams of male SD rats; • Drugs: lipopolysaccharide (LPS, SIGMA L-2880), aspirin (SIGMA A2093), protein BD-3; Instruments: electronic balance (SARTORIUS BP121S type), electronic clinical thermometer (CITIZEN CT-513W type). • Experiment grouping: • Normal control group; • Model group: lipopolysaccharide fever model; • Positive control group: Aspirin 300 mg/kg group; • Protein BD-3, 10 mg/kg group, 50 mg/kg group. • Method: the method of intraperitoneal injection of Lipopolysaccharide to replicate rat fever model.
(§2) Preparation of experimental animals: After the experimental animals adapt to the experimental environment (temperature 22° C.±2° C., relative humidity 50%±2%) for 1 day. Pre-adaptation to measure rectal temperature at 8:00 and 15:00, rats were fasted and water was taken freely 12 h before experiment, and let the animal to empty its feces before measuring the rectal temperature. Apply petroleum jelly to the electronic thermometer probe before each temperature measurement. Insert the rat rectum 2 cm (can be marked at 2 cm to ensure that the depth of each insertion is consistent), and record the body temperature after the reading is stable.
Intraperitoneal injection of lipopolysaccharide to replicate rat fever model: The body temperature of the rats was measured before modeling. Qualified rats with a body temperature of 36.2-37.3° C. were selected and randomly divided into groups with 8 rats in each group. After oral administration of aspirin and different doses of protein BD-3, lipopolysaccharide (20 μg/kg, 2 ml/kg) was injected intraperitoneally immediately, and the normal control group was injected intraperitoneally with an equal volume of normal saline. The body temperatures of the rats were monitored after 2 hours for a total of 8 hours.
(§3) According to the body temperature measured at each time point on the day of the experiment, calculate the mean, standard deviation and standard error of the body temperature of each group of rats. The data of each group was compared with TTEST, and P<0.05 was considered as a significant difference.

In experiment [5] the test system is yeast-induced fever model in SD rats. Kind of experiment: Yeast-induced fever model of SD rats. The class given is in vivo. The procedure: • Animals: 230-260 grams of male SD rats; • Medicines: yeast (OXOID LP0021), aspirin (SIGMA A2093), protein BD-3; • Instruments: electronic balance (SARTORIUS BP121S type), electronic clinical thermometer (CITIZEN CT-513W type). • Experiment grouping: • Normal control group; • Model group: yeast fever model; • Positive control group: Aspirin 300 mg/kg group; • Protein BD-3, 10 mg/kg group, 50 mg/kg group. • Method:
as §2
Subcutaneous injection of dry yeast to replicate rat fever model: The body temperature of the rats was measured before modeling. Qualified rats with a body temperature of 36.2-37.3° C. were selected and randomly divided into groups with 8 rats in each group. After oral administration of aspirin and different doses of protein BD-3, 20% yeast suspension (10 ml/kg) was injected subcutaneously immediately, and the normal control group was injected intraperitoneally with an equal volume of normal saline. The body temperatures of the rats were monitored after 2 hours for a total of 8 hours.
as §3

Experiment [6] relates to acetic acid writhing in ICR mice. Nature of the experiment: Acetic acid writhing in ICR mice. The class given is in vivo. The procedure: • Animals: male ICR mice; • Drugs and reagents: aspirin, physiological saline, glacial acetic acid, protein BD-3. • Experiment grouping: • Model group; • Aspirin 300 mg/kg group; • Protein BD-3, 50 mg/kg group, 200 mg/kg group.
One day after the experimental animals adapt to the environment, Aspirin 300 mg/kg, protein BD-3 50 mg/kg, 200 mg/kg were given orally one hour in advance, and the administration volume was 10 ml/kg; Then, 0.6% acetic acid solution was injected intraperitoneally, and the incubation period (seconds) and frequency of writhing in the animal was observed within 15 minutes.
Calculate the mean and standard error of the data in each group. Compared with the model group by TTEST, P<0.05 was considered as statistically different.
(In general: Writhing tests count abdominal constrictions after an irritant is injected.)

Where [7] appears, read: aspirin 300 mg/kg oral, LPS 20 μg/kg i.p., model group 37.8 ± 0.2.
Where [8] appears, read: aspirin 300 mg/kg oral, 20% yeast s.c., model group 37.7 ± 0.1.

For the molecule `COc1ccc2c(c1)[C@]13CCCC[C@@H]1[C@H](C2)N(C)CC3` [Dextromethorphan, dextromethorphan hydrobromide, reference compound], the “Incubation period (cough)” value in experiment [1] (Dextromethorphan 15 mg/kg oral, X ± SEM, solvent control 26.9 ± 2.3) amounted to 38.4 ± 4.5 s. In experiment [1] (Dextromethorphan 15 mg/kg oral, within 2 minutes, X ± SEM, solvent control 67.1 ± 5.7), this molecule registered a Number of coughs of 34.0 ± 2.9. Further, in experiment [1] (dextromethorphan 15 mg/kg, P<0.05), the “Cough incubation period and number of coughs vs solvent control (in words)” value is “significant improvement in the incubation period and the number of coughs”.

The molecule `CN1C(=O)CN=C(c2ccccc2)c2cc(Cl)ccc21` [Diazepam, reference compound] yielded a mortality rate in experiment [2] (PLO 225 mg/kg i.p., model group 0) of 0. Further, in experiment [2] (PLO 225 mg/kg i.p., model group 80%), the “Grade IV seizure rate” value is listed as 0** %. In experiment [2] (mean ± SEM, maximum recorded 1800 seconds, model group 894 ± 164), the “Grade IV seizure incubation period” value is listed as 1800 ± 0 s. The “Grade II seizure incubation period” value in experiment [2] (mean ± SEM, model group 86 ± 5) stood at 109 ± 8 s. In experiment [2] (mean ± SEM, model group 142 ± 6), the “Grade III seizure incubation period” value turned out to be 182 ± 14 s. For the same molecule, the “Cases of Grade IV” value in experiment [2] (of 10 mice, PLO 225 mg/kg i.p., 30 min observation, model group 8) is 0**. Besides, the Cases of deaths in experiment [2] (of 10 mice, PLO 225 mg/kg i.p., model group 0) was determined as 0.

Take `CCOC(=O)Nc1ccc(NCc2ccc(F)cc2)cc1N` [Retigabine, reference compound]: the mortality rate in experiment [3] (PTZ 65 mg/kg i.p., model group 10%) amounted to 0%. For the same molecule, the “Grade IV seizure rate” value in experiment [3] (PTZ 65 mg/kg i.p., model group 90%) is on record as 20%**. Besides, the “Grade IV seizure incubation period” value in experiment [3] (mean ± SEM, maximum recorded 900 seconds, model group 185 ± 84) amounted to 745 ± 103 s. Besides, the “Grade III seizure incubation period” value in experiment [3] (mean ± SEM, model group 63 ± 6) is given as 83 ± 7 s. Besides, the “Cases of Grade IV” value in experiment [3] (of 10 mice, PTZ 65 mg/kg i.p., 15 min observation, model group 9) was 2**. The Cases of deaths in experiment [3] (of 10 mice, PTZ 65 mg/kg i.p., model group 1) came to 0.

`CC(=O)Oc1ccccc1C(=O)O` [aspirin, reference compound]: the “Body temperature 2 hours after modeling” value in experiment [4] (aspirin 300 mg/kg oral, LPS 20 μg/kg i.p., model group 37.6 ± 0.1) was 36.8 ± 0.1 °C; in experiment [5] (aspirin 300 mg/kg oral, 20% yeast s.c., model group 37.5 ± 0.1), 37.0 ± 0.1 °C. The “Body temperature 4 hours after modeling” value was 36.9 ± 0.2 °C in experiment [4] (aspirin 300 mg/kg oral, LPS 20 μg/kg i.p., model group 37.8 ± 0.1) and 37.0 ± 0.1 °C in experiment [5] (setting [8]). Moreover, the “Body temperature 6 hours after modeling” value in experiment [4] (setting [7]) stood at 36.8 ± 0.2 °C; in experiment [5] (setting [8]) it was 37.0 ± 0.1 °C. Besides, the “Body temperature 8 hours after modeling” value in experiment [4] (setting [7]) was 36.9 ± 0.1 °C; in experiment [5] (aspirin 300 mg/kg oral, 20% yeast s.c., model group 37.6 ± 0.1), 37.0 ± 0.1 °C. The “Effect on body temperature of model rats (in words)” value in experiment [4] (aspirin 300 mg/kg, at 2, 4, 6 and 8 hours after modeling, P<0.05 vs model group) is recorded as “can effectively inhibit the increase in body temperature of model rats”; in experiment [5] (aspirin 300 mg/kg, at 4 hours, 6 hours, and 8 hours after modeling, P<0.05 vs model group), “can effectively inhibit the increase in body temperature of model rats”. In experiment [6] (Aspirin 300 mg/kg, P<0.05), the “Writhing incubation period and times of writhing vs model group (in words)” value was “can significantly delay the incubation period of writhing and reduce the times of writhing”. Also, in experiment [6] (aspirin 300 mg/kg oral, 0.6% acetic acid i.p., model group 204.2 ± 19.6), the Writhing incubation period was 290.3 ± 37.0 s. The Frequency of writhing in experiment [6] (aspirin 300 mg/kg oral, within 15 minutes, model group 33.3 ± 2.5) amounted to 15.2 ± 2.9 times.

For the origin of these results see patent US20240124556A1, “KERATIN BD-3, PREPARATION METHOD THEREFOR AND PHARMACEUTICAL COMPOSITION AND USE THEREOF” (INSTITUTE OF MATERIA MEDICA, CHINESE ACADEMY OF MEDICAL …, priority 2019, published 2024).
